Consider 6 compounds from ChEMBL document CHEMBL3132769, “Fragment growing to retain or alter the selectivity of anchored kinase hinge-binding fragments” (Medchemcomm, 2014).

The target of test [1] is T1, Testis-specific serine/threonine-protein kinase 1 (Homo sapiens) (UniProt Q9BXA7).
T1 sequence (whole entry): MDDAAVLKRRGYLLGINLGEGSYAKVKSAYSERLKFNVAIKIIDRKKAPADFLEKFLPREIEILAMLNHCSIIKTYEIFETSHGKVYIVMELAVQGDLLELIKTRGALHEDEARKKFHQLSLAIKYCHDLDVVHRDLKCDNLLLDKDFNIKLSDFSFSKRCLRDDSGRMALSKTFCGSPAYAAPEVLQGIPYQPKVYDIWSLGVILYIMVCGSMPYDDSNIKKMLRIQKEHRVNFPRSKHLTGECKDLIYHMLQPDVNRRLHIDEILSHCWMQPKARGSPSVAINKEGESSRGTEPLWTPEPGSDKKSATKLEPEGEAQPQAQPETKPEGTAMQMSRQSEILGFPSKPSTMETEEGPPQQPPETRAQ
As to the kind of experiment: Inhibition of human full length TSSK1 expressed in baculovirus assessed as substrate phosphorylation using fluorescence-labelled peptides as substrate at 2 uM after 90 mins by microfluidic peptide phosphorylation assay.

In test [2] the target is T2, Aurora kinase C (Homo sapiens) (UniProt Q9UQB9).
T2 sequence (whole entry): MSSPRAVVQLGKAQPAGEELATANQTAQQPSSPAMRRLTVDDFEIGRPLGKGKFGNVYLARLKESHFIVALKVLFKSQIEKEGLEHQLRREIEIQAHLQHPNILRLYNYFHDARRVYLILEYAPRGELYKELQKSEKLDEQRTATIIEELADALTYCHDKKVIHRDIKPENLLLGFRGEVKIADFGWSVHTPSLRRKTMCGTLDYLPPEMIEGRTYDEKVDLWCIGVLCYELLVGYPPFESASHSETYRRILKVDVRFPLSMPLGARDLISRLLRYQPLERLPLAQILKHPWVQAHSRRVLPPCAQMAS
As to the kind of experiment: Inhibition of human full length AurC expressed in baculovirus assessed as substrate phosphorylation using fluorescence-labelled peptides as substrate at 2 uM after 90 mins by microfluidic peptide phosphorylation assay.

Test [3] deals with Calcium/calmodulin-dependent protein kinase type II subunit beta (Homo sapiens) (UniProt Q13554). As to the kind of experiment: Inhibition of human CAMK2 beta catalytic domain expressed in baculovirus assessed as substrate phosphorylation using fluorescence-labelled peptides as substrate at 0.2 uM after 90 mins by microfluidic peptide phosphorylation assay.
Test [4] has as its target Fibroblast growth factor receptor 4 (Homo sapiens) (UniProt P22455). As to the kind of experiment: Inhibition of human FGFR4 catalytic domain expressed in baculovirus assessed as substrate phosphorylation using fluorescence-labelled peptides as substrate at 0.06 uM after 90 mins by microfluidic peptide phosphorylation assay.
Test [5] has as its target T3, Serine/threonine-protein kinase BRSK1 (Homo sapiens) (UniProt Q8TDC3).
T3 sequence (whole entry): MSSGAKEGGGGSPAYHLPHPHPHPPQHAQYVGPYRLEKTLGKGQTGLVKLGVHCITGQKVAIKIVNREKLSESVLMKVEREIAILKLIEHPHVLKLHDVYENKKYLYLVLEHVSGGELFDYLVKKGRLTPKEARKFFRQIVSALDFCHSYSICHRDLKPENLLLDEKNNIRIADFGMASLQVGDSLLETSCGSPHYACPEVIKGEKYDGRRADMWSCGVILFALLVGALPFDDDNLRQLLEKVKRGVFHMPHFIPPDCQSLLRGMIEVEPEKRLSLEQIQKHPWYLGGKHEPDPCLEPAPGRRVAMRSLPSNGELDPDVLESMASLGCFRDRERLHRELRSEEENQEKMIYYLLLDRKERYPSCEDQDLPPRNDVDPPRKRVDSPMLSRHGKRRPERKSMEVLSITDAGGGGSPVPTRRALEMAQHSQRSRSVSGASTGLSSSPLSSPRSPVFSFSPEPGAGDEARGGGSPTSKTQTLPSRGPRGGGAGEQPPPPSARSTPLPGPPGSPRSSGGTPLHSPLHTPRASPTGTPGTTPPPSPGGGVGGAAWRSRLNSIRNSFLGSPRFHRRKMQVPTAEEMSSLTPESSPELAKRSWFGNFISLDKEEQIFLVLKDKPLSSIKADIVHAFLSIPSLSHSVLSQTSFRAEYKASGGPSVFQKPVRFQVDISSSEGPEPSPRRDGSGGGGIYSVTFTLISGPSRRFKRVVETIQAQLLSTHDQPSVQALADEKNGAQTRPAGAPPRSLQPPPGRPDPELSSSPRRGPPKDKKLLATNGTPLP
As to the kind of experiment: Inhibition of human full length BRSK1 expressed in baculovirus assessed as substrate phosphorylation using fluorescence-labelled peptides as substrate at 9 uM after 90 mins by microfluidic peptide phosphorylation assay.

The target in test [6] is T3, Serine/threonine-protein kinase BRSK1 (Homo sapiens). As to the kind of experiment: Inhibition of human full length BRSK1 expressed in baculovirus assessed as substrate phosphorylation using fluorescence-labelled peptides as substrate at 95 uM after 90 mins by microfluidic peptide phosphorylation assay.
Test [7] has as its target T4, Mitogen-activated protein kinase 13 (Homo sapiens) (UniProt O15264).
T4 sequence (whole entry): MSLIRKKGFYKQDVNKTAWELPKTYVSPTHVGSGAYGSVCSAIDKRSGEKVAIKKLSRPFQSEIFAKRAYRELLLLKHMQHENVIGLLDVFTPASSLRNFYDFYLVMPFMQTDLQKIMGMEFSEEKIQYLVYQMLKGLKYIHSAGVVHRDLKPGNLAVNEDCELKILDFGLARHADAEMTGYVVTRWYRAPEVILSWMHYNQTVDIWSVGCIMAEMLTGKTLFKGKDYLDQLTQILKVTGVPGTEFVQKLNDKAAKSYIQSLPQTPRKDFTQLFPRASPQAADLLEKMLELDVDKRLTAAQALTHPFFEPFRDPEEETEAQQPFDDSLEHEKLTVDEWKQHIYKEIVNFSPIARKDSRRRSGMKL
As to the kind of experiment: Inhibition of human full length p38 delta expressed in Escherichia coli cell assessed as substrate phosphorylation using fluorescence-labelled peptides as substrate at 1000 uM after 90 mins by microfluidic peptide phosphorylation assay.

Fibroblast growth factor receptor 4 (Homo sapiens), sequence (P22455 22-802 limits assumed): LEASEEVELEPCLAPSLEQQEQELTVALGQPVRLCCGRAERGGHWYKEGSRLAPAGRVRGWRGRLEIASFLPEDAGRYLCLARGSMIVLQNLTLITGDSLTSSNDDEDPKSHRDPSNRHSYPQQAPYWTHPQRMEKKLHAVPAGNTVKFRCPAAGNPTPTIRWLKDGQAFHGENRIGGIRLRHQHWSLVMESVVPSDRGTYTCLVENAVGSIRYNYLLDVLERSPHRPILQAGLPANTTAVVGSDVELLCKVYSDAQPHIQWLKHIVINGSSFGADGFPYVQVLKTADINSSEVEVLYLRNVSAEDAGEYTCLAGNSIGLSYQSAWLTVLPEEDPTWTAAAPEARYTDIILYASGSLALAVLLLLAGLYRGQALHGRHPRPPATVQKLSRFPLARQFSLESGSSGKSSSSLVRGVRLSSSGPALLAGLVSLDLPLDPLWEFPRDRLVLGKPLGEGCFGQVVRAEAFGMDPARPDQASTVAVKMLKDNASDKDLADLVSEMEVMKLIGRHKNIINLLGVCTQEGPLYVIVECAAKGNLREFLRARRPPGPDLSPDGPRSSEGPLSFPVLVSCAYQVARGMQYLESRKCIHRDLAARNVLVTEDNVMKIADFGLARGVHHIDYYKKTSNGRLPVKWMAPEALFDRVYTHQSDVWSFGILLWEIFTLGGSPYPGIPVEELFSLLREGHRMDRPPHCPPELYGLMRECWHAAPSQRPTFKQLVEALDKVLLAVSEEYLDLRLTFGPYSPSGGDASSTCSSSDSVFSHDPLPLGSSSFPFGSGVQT
Calcium/calmodulin-dependent protein kinase type II subunit beta (Homo sapiens), sequence (Q13554 whole entry, the tested form may be a part): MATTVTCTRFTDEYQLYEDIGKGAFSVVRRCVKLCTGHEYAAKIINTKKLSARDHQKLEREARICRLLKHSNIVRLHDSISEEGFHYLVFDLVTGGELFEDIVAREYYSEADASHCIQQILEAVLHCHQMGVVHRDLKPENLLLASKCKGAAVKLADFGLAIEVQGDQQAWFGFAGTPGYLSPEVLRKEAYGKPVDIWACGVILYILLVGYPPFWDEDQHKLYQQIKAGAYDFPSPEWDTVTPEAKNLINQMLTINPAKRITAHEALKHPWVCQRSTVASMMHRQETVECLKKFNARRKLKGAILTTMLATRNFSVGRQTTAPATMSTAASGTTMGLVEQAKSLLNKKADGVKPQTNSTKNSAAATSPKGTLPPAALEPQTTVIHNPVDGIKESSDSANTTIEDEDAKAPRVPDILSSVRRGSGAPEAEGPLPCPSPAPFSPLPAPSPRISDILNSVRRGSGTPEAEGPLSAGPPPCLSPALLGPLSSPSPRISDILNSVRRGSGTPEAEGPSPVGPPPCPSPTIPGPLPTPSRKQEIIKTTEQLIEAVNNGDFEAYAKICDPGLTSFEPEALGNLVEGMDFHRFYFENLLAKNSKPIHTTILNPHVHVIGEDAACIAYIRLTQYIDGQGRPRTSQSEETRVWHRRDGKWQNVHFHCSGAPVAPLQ

The term inhibition denotes the percentage by which the read-out fell short of the control. With `NC1CCN(c2ncnc3[nH]ccc23)CC1`, the inhibition stood at 0% in test [1] and 13.5% in test [2].

Turning to `Clc1ccc(C2(c3ccc(-c4ncnc5[nH]cnc45)cc3)CCNCC2)cc1`, the inhibition in test [3] is 11.5%.

For the compound `NC1(Cc2ccc(Cl)cc2)CCN(c2ncnc3[nH]ccc23)CC1`, in test [4], the inhibition was 2%.

On to `NCC1CN(c2ncnc3[nH]c4cnccc4c23)CCO1` (configuration not stated), for which, in test [5], the inhibition came out at 29.5%.

For `NCCc1ccc(-c2ncnc3[nH]cnc23)cc1`, the inhibition in test [6] was 44%.

With `c1cnc2[nH]ccc2c1`, the inhibition in test [7] came to 51%.
